Measured values from patent US7354931B2, “Heterocyclic retinoid compounds” (Roche Palo Alto LLC, priority 2001, dated 2008).

Experiments:
RAR α = biological target: T1, RAR α (Homo sapiens, UniProt P10276); assay: Ligand binding assay, retinoic acid receptor α; conditions: first value of α/β/γ cell
T1 sequence (P10276 1-462): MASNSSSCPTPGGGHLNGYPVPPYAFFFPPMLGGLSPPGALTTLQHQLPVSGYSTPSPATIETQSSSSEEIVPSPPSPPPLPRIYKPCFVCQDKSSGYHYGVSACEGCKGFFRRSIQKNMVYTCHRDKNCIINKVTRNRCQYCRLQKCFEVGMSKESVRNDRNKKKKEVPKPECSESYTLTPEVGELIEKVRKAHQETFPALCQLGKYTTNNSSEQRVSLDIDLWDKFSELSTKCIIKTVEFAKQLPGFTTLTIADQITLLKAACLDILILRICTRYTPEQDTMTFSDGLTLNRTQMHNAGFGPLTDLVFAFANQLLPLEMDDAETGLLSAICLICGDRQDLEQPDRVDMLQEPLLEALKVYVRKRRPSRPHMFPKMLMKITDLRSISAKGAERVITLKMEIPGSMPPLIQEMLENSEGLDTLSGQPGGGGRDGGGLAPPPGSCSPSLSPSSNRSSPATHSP
Excerpt: (§1) The retinoic acid receptor agonist selectivity of a compound of the invention may be determined by using ligand binding assays known to the skilled artisan (Apfel et al., Proc. Natl. Acad. Sci., 1992, 89, 7129; Teng et al., J. Med. Chem., 1997, 40, 2445; Bryce et al., U.S. Pat. No. 5,807,900 which are herein incorporated by reference). Treatment with RAR agonists, particularly RAR γ agonists may promote repair of alveolar matrix and septation, which are in important in treating emphysema. It should be noted that RAR agonists that are not γ selective may be effective in treating emphysema
as §1, with “emphysema” for “emphysema.”, “emphysema.” for “emphysema”

RAR β = biological target: T2, RAR β (Homo sapiens, UniProt P10826); assay: Ligand binding assay, retinoic acid receptor β; conditions: second value of α/β/γ cell
T2 sequence (P10826 1-455): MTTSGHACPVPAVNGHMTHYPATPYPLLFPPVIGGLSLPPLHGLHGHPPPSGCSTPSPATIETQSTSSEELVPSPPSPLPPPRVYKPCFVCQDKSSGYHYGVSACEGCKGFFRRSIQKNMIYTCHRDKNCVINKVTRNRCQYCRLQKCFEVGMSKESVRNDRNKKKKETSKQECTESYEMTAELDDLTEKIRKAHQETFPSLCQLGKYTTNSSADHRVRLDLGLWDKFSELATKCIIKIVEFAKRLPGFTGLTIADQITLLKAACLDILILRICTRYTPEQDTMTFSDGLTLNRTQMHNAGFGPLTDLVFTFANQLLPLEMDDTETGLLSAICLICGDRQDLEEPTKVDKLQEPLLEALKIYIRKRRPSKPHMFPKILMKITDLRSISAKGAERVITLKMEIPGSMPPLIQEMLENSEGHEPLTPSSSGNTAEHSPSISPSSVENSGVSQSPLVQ
Excerpt: as §1
as §1, with “emphysema” for “emphysema.”, “emphysema.” for “emphysema”

RAR γ = biological target: T3, RAR γ (Homo sapiens, UniProt P13631); assay: Ligand binding assay, retinoic acid receptor γ; conditions: third value of α/β/γ cell
T3 sequence (P13631 1-454): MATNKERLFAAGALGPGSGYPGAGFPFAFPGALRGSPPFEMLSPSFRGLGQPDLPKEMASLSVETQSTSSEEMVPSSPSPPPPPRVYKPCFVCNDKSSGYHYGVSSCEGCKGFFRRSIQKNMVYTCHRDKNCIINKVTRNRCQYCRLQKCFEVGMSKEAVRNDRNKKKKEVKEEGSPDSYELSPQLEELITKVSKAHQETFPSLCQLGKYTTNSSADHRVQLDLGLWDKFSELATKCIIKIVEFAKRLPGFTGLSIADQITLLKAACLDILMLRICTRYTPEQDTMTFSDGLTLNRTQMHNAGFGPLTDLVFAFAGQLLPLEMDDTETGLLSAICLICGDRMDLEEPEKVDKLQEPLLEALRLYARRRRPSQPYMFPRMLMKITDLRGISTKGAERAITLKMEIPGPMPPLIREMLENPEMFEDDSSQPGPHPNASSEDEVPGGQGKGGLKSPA
Excerpt: as §1
as §1, with “emphysema” for “emphysema.”, “emphysema.” for “emphysema”

[1] = test system: rat model of elastase-induced emphysema; assay: Alveolar repair in rat model of elastase-induced emphysema; type: in vivo, male Sprague Dawley rats; conditions: once per day starting 21 days post elastase injury, relative to elastase+vehicle group
Excerpt: Compounds of the invention may be evaluated for their effects on alveolar repair in the rat model of elastase-induced emphysema (Massaro et al., Nature, 1997, Vol. 3, No. 6: 675; Massaro et al., U.S. Pat. No. 5,998,486). Preferably, animals are divided into treatment groups of approximately eight. Lung inflammation and alveolar damage may be induced in male Sprague Dawley rats by a single instillation of about 2 U/gram body mass of pancreatic elastase (porcine derived, Calbiochem).
Animals may be treated with a compound of the invention formulated Miglyol at convenient oral dosage ranges (preferably, between about 10.0 mg/kg and 0.0001 mg/kg) and will be dosed orally once per day starting 21 days post injury. Control groups are challenged with elastase and 21 days later are treated with vehicle (Miglyol) for 14 days. Animals were sacrificed 24 hours after the last dose by exsanguination under deep anesthesia. Blood was collected at time of exsanguination for analysis.
The lungs are inflated with 10% neutral buffered formalin by intratracheal instillation at a constant rate (1 ml/gram body mass/min). The lung is excised and immersed in fixative for 24 hours prior to processing. Standard methods were used to prepare 5 μm paraffin sections. Sections were stained with Hematoxylin and Eosin. Alveolar measurements were made in four regions of the lung/rat by Computerized Morphometric analysis. The mean value/treatment group may be determined by summing the average area/rat for all eight rats/treatment groups and repair of elastase damage expressed as percentage of repair relative to the elastase+vehicle treated group from the following calculation: […]

Row | IC50 (RAR α) [nM] | IC50 (RAR β) [nM] | IC50 (RAR γ) [nM] | melting point [°C] | Compound | % Alveolar repair ([1]; dose 1 μg/kg p.o.) [%] | % Alveolar repair ([1]; dose 10 μg/kg p.o.) [%] | % Alveolar repair ([1]; dose 100 μg/kg p.o.) [%]
1 | 3920 | 3160 | 3770 | 91.5 to 93.3 | CCCCCC(COc1ccc(C(=O)O)cc1)c1ccc2c(c1)OCCC2(C)C (racemic) [Example 5.1, 4-[2-(4,4-dimethyl-chroman-7-yl)-heptyloxy]-benzoic acid] |  |  | 
2 | 2070 | 3010 | 3230 | 123 to 123.5 | CCCCCC(COc1ccc(C(=O)O)cc1)c1ccc2c(c1)SCCC2(C)C (racemic) [Example 5.2, 4-[2-(4,4-dimethyl-thiochroman-7-yl)-heptyloxy]-benzoic acid] |  |  | 
3 | 6920 | 2920 | 3870 |  | CCCCCC(/C=C/c1ccc(C(=O)O)cc1)c1ccc2c(c1)OCCC2(C)C (racemic) [Example 5.3, 4-[3-(4,4-dimethyl-chroman-7-yl)-oct-1-enyl]-benzoic acid] |  |  | 
4 | 1580 | 1490 | 2330 |  | CCCCCC(/C=C/c1ccc(C(=O)O)cc1)c1ccc2c(c1)SCCC2(C)C (racemic) [Example 5.4, 4-[3-(4,4-dimethyl-thiochroman-7-yl)-oct-1-enyl]-benzoic acid] |  |  | 
5 | 1460 | 1940 | 1420 |  | CCCCCC(/C=C/c1ccc(C(=O)O)cc1)c1ccc2c(c1)N(C)CCC2(C)C (racemic) [Example 5.5, 4-[3-(1,4,4-trimethyl-1,2,3,4-tetrahydro-quinolin-7-yl)-oct-1-enyl]-benzoic acid] | 65 | 54 | 60.9
6 | 1280 | 1470 | 1000 |  | CCCCCC(/C=C/c1ccc(C(=O)O)cc1)c1ccc2c(c1)N(CC)CCC2(C)C (racemic) [Example 5.6, 4-[3-(1-ethyl4,4-dimethyl-1,2,3,4-tetrahydro-quinolin-7-yl)-oct-1-enyl]-benzoic acid] |  |  | 
7 | 3390 | 1050 | > 10000 |  | CCC(/C=C/c1ccc(C(=O)O)cc1)c1ccc2c(c1)N(C)CCC2(C)C (racemic) [Example 5.7, 4-[3-(1,4,4-trimethyl-1,2,3,4-tetrahydro-quinolin-7-yl)-pent-1-enyl]-benzoic acid] |  |  | 
8 | 5140 | 8270 | 6390 |  | CCCCCC(/C=C/c1ccc(C(=O)O)cc1)c1ccc2c(c1)NCCC2(C)C (racemic) [Example 5.10, 4-[3-(4,4-dimethyl-1,2,3,4-tetrahydro-quinolin-7-yl)-oct-1-enyl]-benzoic acid] |  |  | 
9 | 6290 | 3260 | 4060 |  | CCCCCC(/C=C/c1ccc(C(=O)O)cc1F)c1ccc2c(c1)N(C)CCC2(C)C (racemic) [Example 5.11, 3-fluoro-4-[3-(1,4,4-trimethyl-1,2,3,4-tetrahydro-quinolin-7-yl)-oct-1-enyl]-benzoic acid] |  |  | 
10 | 3170 | 4150 | 5440 |  | CCCCCC(COc1ccc(C(=O)O)cc1)c1ccc2c(c1)N(C)CCC2(C)C (racemic) [Example 5.12, 4-[2-(1,4,4-trimethyl-1,2,3,4-tetrahydro-quinolin-7-yl)-heptyloxy]-benzoic acid] |  |  | 
11 | 2520 | 3130 | 3600 |  | CCCCCC(COc1ccc(C(=O)O)cc1)c1ccc2c(c1)N(CC)CCC2(C)C (racemic) [Example 5.13, 4-[2-(1-ethyl4,4-dimethyl-1,2,3,4-tetrahydro-quinolin-7-yl)-heptyloxy]-benzoic acid] |  |  | 
